Assay results published in PubChem BioAssay AID2060504 (Molecular Pharmacology Branch, DTP, NCI, 2025).

Test system: 636577-100-R-J1-PDC complex spheroid viability
Assay: Anticancer human tumor 636577-100-R-J1-PDC patient-derived endometrial adenocarcinoma cell line growth inhibition [GQUAD]
Settings: for IC50: curve of first compound; for viability, T/C: stronger effect = lower value; active = viability on the fitted dose curve at most 10% of control; inactive = the rest
Summary of the method: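 Tumor cells were grown as complex spheroids with HUVEC endothelial cells and mesenchymal stem cells as stroma. G-quadruplex stabilizers were combined with targeted agents over half-log dilutions from near the clinical Cmax, or from 10 microM.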

[1] = second compound 0.0316 µM, first compound 0.0316 µM
[2] = second compound 0.0316 µM, first compound 0.1 µM
[3] = second compound 0.0316 µM, first compound 0.316 µM
[4] = second compound 0.0316 µM, first compound 1 µM
[5] = second compound 0.0316 µM, first compound 3.16 µM
[6] = second compound 0.0316 µM, first compound 10 µM
[7] = second compound 0.1 µM, first compound 0.0316 µM
[8] = second compound 0.1 µM, first compound 0.1 µM
[9] = second compound 0.1 µM, first compound 0.316 µM
[10] = second compound 0.1 µM, first compound 1 µM
[11] = second compound 0.1 µM, first compound 3.16 µM
[12] = second compound 0.1 µM, first compound 10 µM
[13] = second compound 0.316 µM, first compound 0.0316 µM
[14] = second compound 0.316 µM, first compound 0.1 µM
[15] = second compound 0.316 µM, first compound 0.316 µM
[16] = second compound 0.316 µM, first compound 1 µM
[17] = second compound 0.316 µM, first compound 3.16 µM
[18] = second compound 0.316 µM, first compound 10 µM
[19] = second compound 1 µM, first compound 0.0316 µM
[20] = second compound 1 µM, first compound 0.1 µM
[21] = second compound 1 µM, first compound 0.316 µM
[22] = second compound 1 µM, first compound 1 µM
[23] = second compound 1 µM, first compound 3.16 µM
[24] = second compound 1 µM, first compound 10 µM
[25] = second compound 3.16 µM, first compound 0.0316 µM
[26] = second compound 3.16 µM, first compound 0.1 µM
[27] = second compound 3.16 µM, first compound 0.316 µM
[28] = second compound 3.16 µM, first compound 1 µM
[29] = second compound 3.16 µM, first compound 3.16 µM
[30] = second compound 3.16 µM, first compound 10 µM
[31] = second compound 10 µM, first compound 0.0316 µM
[32] = second compound 10 µM, first compound 0.1 µM
[33] = second compound 10 µM, first compound 0.316 µM
[34] = second compound 10 µM, first compound 1 µM
[35] = second compound 10 µM, first compound 3.16 µM
[36] = second compound 10 µM, first compound 10 µM
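Note: viability read after seven days of drug exposure.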
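Throughout, for viability, T/C: luminescence signal used as a proxy for viable cells; 100% = DMSO vehicle control wells.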

CC1COCCN1c1cc(C2(O)CC3CCC(C2)O3)c2cnn(-c3ccn[nH]3)c2n1 (stereo not drawn) + CN(C)c1ccc(Nc2c3ccc(NC(=O)CCN4CCCC4)cc3nc3cc(NC(=O)CCN4CCCC4)ccc23)cc1
46.2 nM: IC50 (second compound 0.0316 µM)
inactive: viability, T/C [1] 59.8% | viability, T/C [2] 30.1% | viability, T/C [3] 14.8% | viability, T/C [7] 51.9% | viability, T/C [8] 25.7% | viability, T/C [9] 15.9% | viability, T/C [13] 49.4% | viability, T/C [14] 27.2% | viability, T/C [15] 14.4% | viability, T/C [19] 44.5% | viability, T/C [20] 24.9% | viability, T/C [21] 13.1% | viability, T/C [25] 23.6% | viability, T/C [26] 18.4% | viability, T/C [27] 12.6%
< 31.6 nM: IC50 (second compound 0.316 µM) | IC50 (second compound 1 µM) | IC50 (second compound 3.16 µM) | IC50 (second compound 10 µM)
33.6 nM: IC50 (second compound 0.1 µM)
active: viability, T/C [4] 7.23% | viability, T/C [5] 3% | viability, T/C [6] 0.68% | viability, T/C [10] 6.63% | viability, T/C [11] 2.93% | viability, T/C [12] 0.63% | viability, T/C [16] 7.39% | viability, T/C [17] 2.94% | viability, T/C [18] 0.62% | viability, T/C [22] 7.03% | viability, T/C [23] 2.84% | viability, T/C [24] 0.8% | viability, T/C [28] 6.87% | viability, T/C [29] 2.75% | viability, T/C [30] 0.79% | viability, T/C [31] 5.13% | viability, T/C [32] 4.81% | viability, T/C [33] 2.43% | viability, T/C [34] 2.03% | viability, T/C [35] 1.14% | viability, T/C [36] 0.3%

C#Cc1c(F)ccc2cc(O)cc(-c3ncc4c(N5CC6CCC(C5)N6)nc(OCC56CCCN5CC(F)C6)nc4c3F)c12 (stereo not drawn) + CN(C)c1ccc(Nc2c3ccc(NC(=O)CCN4CCCC4)cc3nc3cc(NC(=O)CCN4CCCC4)ccc23)cc1
3860 nM: IC50 (second compound 0.316 µM)
6070 nM: IC50 (second compound 0.0316 µM)
< 31.6 nM: IC50 (second compound 3.16 µM) | IC50 (second compound 10 µM)
active: viability, T/C [31] 5.81% | viability, T/C [32] 4.81% | viability, T/C [33] 4.89% | viability, T/C [34] 3.78% | viability, T/C [35] 3.21% | viability, T/C [36] 0.66%
inactive: viability, T/C [1] 109% | viability, T/C [2] 84.1% | viability, T/C [3] 95.4% | viability, T/C [4] 69.9% | viability, T/C [5] 72.2% | viability, T/C [6] 37.2% | viability, T/C [7] 98.6% | viability, T/C [8] 94.3% | viability, T/C [9] 85.6% | viability, T/C [10] 68% | viability, T/C [11] 49.4% | viability, T/C [12] 42.5% | viability, T/C [13] 93% | viability, T/C [14] 99.3% | viability, T/C [15] 85.7% | viability, T/C [16] 62.1% | viability, T/C [17] 59.1% | viability, T/C [18] 34.9% | viability, T/C [19] 61% | viability, T/C [20] 75.2% | viability, T/C [21] 70.5% | viability, T/C [22] 61.8% | viability, T/C [23] 46.5% | viability, T/C [24] 29.8% | viability, T/C [25] 41.7% | viability, T/C [26] 37.2% | viability, T/C [27] 38% | viability, T/C [28] 36.4% | viability, T/C [29] 22.7% | viability, T/C [30] 15.7%
2430 nM: IC50 (second compound 1 µM)
3230 nM: IC50 (second compound 0.1 µM)

CC(C)(O)C1CCC(Nc2ccc3ncc(-c4cccc(C(F)(F)F)c4)n3n2)CC1 (stereo not drawn) + Cc1[nH]c2ccc(F)cc2c1-c1nc2c3cccnc3c3ncccc3c2[nH]1
< 31.6 nM: IC50 (second compound 3.16 µM) | IC50 (second compound 10 µM)
1770 nM: IC50 (second compound 0.316 µM)
1880 nM: IC50 (second compound 1 µM)
1090 nM: IC50 (second compound 0.0316 µM)
981 nM: IC50 (second compound 0.1 µM)
inactive: viability, T/C [1] 92.8% | viability, T/C [2] 75.9% | viability, T/C [3] 111% | viability, T/C [4] 51.3% | viability, T/C [5] 35.5% | viability, T/C [6] 32.2% | viability, T/C [7] 90.7% | viability, T/C [8] 79.1% | viability, T/C [9] 84.4% | viability, T/C [10] 49% | viability, T/C [11] 33.1% | viability, T/C [12] 26.2% | viability, T/C [13] 60.9% | viability, T/C [14] 54.6% | viability, T/C [15] 82.9% | viability, T/C [16] 62.5% | viability, T/C [17] 34.6% | viability, T/C [18] 39.9% | viability, T/C [19] 69% | viability, T/C [20] 78% | viability, T/C [21] 69.5% | viability, T/C [22] 69.8% | viability, T/C [23] 33.7% | viability, T/C [24] 23.5% | viability, T/C [25] 20.1% | viability, T/C [26] 28.1% | viability, T/C [27] 31.1% | viability, T/C [28] 26.1% | viability, T/C [29] 16.2% | viability, T/C [30] 13.1% | viability, T/C [31] 31.6% | viability, T/C [32] 34.1% | viability, T/C [33] 39% | viability, T/C [34] 37.8% | viability, T/C [35] 17.1% | viability, T/C [36] 15.1%

O=C(NO)c1cnc(N2CCN(S(=O)(=O)c3ccc4ccccc4c3)CC2)nc1 + Cc1[nH]c2ccc(F)cc2c1-c1nc2c3cccnc3c3ncccc3c2[nH]1
46.3 nM: IC50 (second compound 1 µM)
inactive: viability, T/C [1] 69.7% | viability, T/C [2] 21.1% | viability, T/C [7] 68.2% | viability, T/C [8] 33.2% | viability, T/C [9] 15.2% | viability, T/C [13] 60.2% | viability, T/C [14] 31.4% | viability, T/C [15] 17.2% | viability, T/C [19] 60.2% | viability, T/C [20] 29% | viability, T/C [21] 16.6% | viability, T/C [25] 25.8% | viability, T/C [26] 19.7% | viability, T/C [27] 17.1% | viability, T/C [31] 29.5% | viability, T/C [32] 22.4% | viability, T/C [33] 14.3%
active: viability, T/C [3] 11.5% | viability, T/C [4] 7.28% | viability, T/C [5] 0.23% | viability, T/C [6] 0.1% | viability, T/C [10] 5.55% | viability, T/C [11] 0.5% | viability, T/C [12] 0.09% | viability, T/C [16] 7.41% | viability, T/C [17] 1% | viability, T/C [18] 0.08% | viability, T/C [22] 6.03% | viability, T/C [23] 1.47% | viability, T/C [24] 0.08% | viability, T/C [28] 7.07% | viability, T/C [29] 2.05% | viability, T/C [30] 0.09% | viability, T/C [34] 6.09% | viability, T/C [35] 2.61% | viability, T/C [36] 0.11%
57.7 nM: IC50 (second compound 0.1 µM)
< 31.6 nM: IC50 (second compound 3.16 µM) | IC50 (second compound 10 µM)
47.6 nM: IC50 (second compound 0.316 µM)
51.2 nM: IC50 (second compound 0.0316 µM)
